Test results as given in patent US20070185215A1, “Pharmaceutical composition containing obovatol as an active ingredient for the prevention and treatment of neurodegenerative diseases” (priority 2006, published 2007).

How the values were obtained:
[1] = tested on: BV-2 murine microglial cell line; assay: Inhibition of nitric oxide production in LPS-activated microglia (Griess reaction); format: cell-based; conditions: BV-2 cells, 100 ng/ml LPS, 24 hours
Experimental: (§1) The BV-2 murine microglial cell line, obtained from Prof. Eui-Ju, Choi, School of Life Sciences and Technology in Korea University, Korea, was treated with 100 ng/ml of LPS (lipopolysaccharide), known to activate microglial cells, in the presence of 1 μg/ml or 10 μg/ml obovatol for 24 hours, and then the nitric oxides secreted into the culture media were quantitatively analyzed using a Griess reaction method to determine the activity of the microglia. In detail, 50 μl of the microglial culture medium was reacted with 50 μl of the Griess reagent [1% sulfanilamide/0.1% naphthylethylene diamine dihydrochloride/2% phosphoric acid] at room temperature for 10 min, followed by measuring absorbance at 540 nm with the aid of a microplate reader (Anthos Labtec Instruments GmbH Salzburg, Austria). For comparison, magnolol, known to have a neuroprotective effect, was also tested in the same manner. Using NaNO2 as a standard material, inhibition rates of the test materials were calculated for the production of nitric oxides. Also, MTT assay was conducted to measure cytotoxicity in order to determine whether or not the inhibitory activity against microglial activity was attributed to cytotoxicity.

[2] = tested on: BV-2 murine microglial cell line; assay: MTT assay for cytotoxicity; format: cell-based; conditions: concentrations as high as 30˜50 μg/ml
Experimental: as §1

[3] = Solubility (physical and chemical properties); format: physicochemical
SD rats = assay: Acute oral toxicity assay in rats; format: in vivo
Experimental: Using six-week-old specific pathogen-free (SPF) SD rats, an acute toxicity assay was conducted. The rats were divided into groups of two rats. After being dissolved in injectable saline, the obovatol, obtained in Example 1, was orally administered once in a dosage of 1 g/kg/ml to the rat groups. Afterwards, observations were made of the death, clinical symptoms, and weight changes of the animals, and serological and serobiochemical assays were conducted. Also, an autopsy was carried out to examine abnormalities of the abdominal and thoracic organs with the naked eye.

| Compound | inhibition at 1 µg/mL ([1]; Mus musculus, 1 μg/ml compound, read-out: Inhibition Rates (%) of Nitric Oxide Production) [%] | inhibition at 10 µg/mL ([1]; Mus musculus, 10 μg/ml compound, read-out: Inhibition Rates (%) of Nitric Oxide Production) [%] | Cytotoxicity as measured by MTT assay [2] | Solubility ([3]; Alcohol, DMSO) | Solubility ([3]; Hexane, water) | Inhibition Rates (%) of Nitric Oxide Production ([1]; 1 μg/ml compound) [%] | Inhibition Rates (%) of Nitric Oxide Production ([1]; 10 μg/ml compound) [%] | Noticeable clinical symptoms or death (SD rats; SD rats, oral, once, 1 g/kg/ml) | Toxicity in weight change, serological assay, serobiochemical assay, autopsy observations (SD rats; SD rats, oral, once, 1 g/kg/ml) | Dose causing no toxic effects (SD rats; rat, in vivo, po) [mg/kg] |
| --- | --- | --- | --- | --- | --- | --- | --- | --- | --- | --- |
| C=CCc1ccc(O)c(-c2cc(CC=C)ccc2O)c1 [Magnolol, magnolol, reference compound] | 13.1 | 59 | – | – | – | – | – | – | – | – |
| obovatol | – | – | did not exhibit cytotoxicity | Soluble | Insoluble | 29.8 | 83.3 | None of the animals | not observed | ≤ 500 |
